Assay results: PubChem BioAssay (NCI)
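Cells were grown in 96-well plates and exposed to each compound for 48 hours at five concentrations; endpoints were interpolated linearly between bracketing concentrations, or set to the highest concentration if not reached. Here, GI50 denotes the concentration required for 50% inhibition of growth. The concentration for full growth arrest is given as TGI.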

What was measured:
Test in all cases: DTP human tumour cell line panel, 48 h
TK-10 renal = system: TK-10 renal
SF-295 CNS = system: SF-295 CNS
KM12 colon = system: KM12 colon
NCI-H460 lung = system: NCI-H460 lung
UACC-62 melanoma = system: UACC-62 melanoma
DU-145 prostate = system: DU-145 prostate
SNB-19 CNS = system: SNB-19 CNS
RXF 393 renal = system: RXF 393 renal
M14 melanoma = system: M14 melanoma
A549 NSCLC = system: A549 NSCLC
HOP-92 NSCLC = system: HOP-92 NSCLC
COLO 205 colon = system: COLO 205 colon
MDA-MB-435 = system: MDA-MB-435
PC-3 prostate = system: PC-3 prostate
786-0 renal = system: 786-0 renal
HCC-2998 colon = system: HCC-2998 colon
U251 CNS = system: U251 CNS
UACC-257 melanoma = system: UACC-257 melanoma
A498 renal = system: A498 renal
LOX IMVI melanoma = system: LOX IMVI melanoma
SW-620 colon = system: SW-620 colon
SN12C renal = system: SN12C renal
CCRF-CEM leukemia = system: CCRF-CEM leukemia
HCT-116 colon = system: HCT-116 colon
NCI-H522 lung = system: NCI-H522 lung
ACHN renal = system: ACHN renal
T-47D breast = system: T-47D breast
BT-549 breast = system: BT-549 breast
HL-60(TB) leukemia = system: HL-60(TB) leukemia
MOLT-4 leukemia = system: MOLT-4 leukemia
IGROV1 ovarian = system: IGROV1 ovarian
OVCAR-3 ovarian = system: OVCAR-3 ovarian
OVCAR-5 ovarian = system: OVCAR-5 ovarian
SK-MEL-28 melanoma = system: SK-MEL-28 melanoma
SF-539 CNS = system: SF-539 CNS
SK-OV-3 ovarian = system: SK-OV-3 ovarian
HT29 colon = system: HT29 colon
SNB-75 CNS = system: SNB-75 CNS
HS 578T breast = system: HS 578T breast
K-562 leukemia = system: K-562 leukemia
NCI-H226 lung = system: NCI-H226 lung
SK-MEL-2 melanoma = system: SK-MEL-2 melanoma
SF-268 CNS = system: SF-268 CNS
HOP-62 NSCLC = system: HOP-62 NSCLC
OVCAR-8 ovarian = system: OVCAR-8 ovarian
RPMI-8226 leukemia = system: RPMI-8226 leukemia
MCF7 breast = system: MCF7 breast
SK-MEL-5 melanoma = system: SK-MEL-5 melanoma
HCT-15 colon = system: HCT-15 colon
CAKI-1 renal = system: CAKI-1 renal
MALME-3M melanoma = system: MALME-3M melanoma
SR leukemia = system: SR leukemia
UO-31 renal = system: UO-31 renal
MDA-MB-231 breast = system: MDA-MB-231 breast
OVCAR-4 ovarian = system: OVCAR-4 ovarian
EKVX NSCLC = system: EKVX NSCLC
NCI/ADR-RES ovarian = system: NCI/ADR-RES ovarian
NCI-H23 lung = system: NCI-H23 lung

## O=C(NO)c1ccc(CN(c2cnccn2)c2cnccn2)cc1
TK-10 renal
  GI50: 11.3 µM
  TGI: 42 µM
SF-295 CNS
  GI50: 14.8 µM
  TGI: 33.4 µM
KM12 colon
  GI50: 10.3 µM
  TGI: 24.2 µM
NCI-H460 lung
  GI50: 14.8 µM
  TGI: 43.6 µM
UACC-62 melanoma
  GI50: 6.71 µM
  TGI: 28.5 µM
DU-145 prostate
  GI50: 9.26 µM
  TGI: > 100 µM
SNB-19 CNS
  GI50: 17.7 µM
  TGI: 72.5 µM
RXF 393 renal
  GI50: 11.5 µM
  TGI: 25.1 µM
M14 melanoma
  GI50: 11.1 µM
  TGI: 28.3 µM
A549 NSCLC
  GI50: 13.9 µM
  TGI: 36.5 µM
HOP-92 NSCLC
  GI50: 16.4 µM
  TGI: 35.1 µM
COLO 205 colon
  GI50: 2.96 µM
  TGI: 8.17 µM
MDA-MB-435
  GI50: 12.2 µM
  TGI: 27.7 µM
PC-3 prostate
  GI50: 11.7 µM
  TGI: 31.4 µM
786-0 renal
  GI50: 15.7 µM
  TGI: 35 µM
HCC-2998 colon
  GI50: 13.2 µM
  TGI: 26.8 µM
U251 CNS
  GI50: 7.74 µM
  TGI: 21.4 µM
UACC-257 melanoma
  GI50: 5.77 µM
  TGI: 22.2 µM
A498 renal
  GI50: 10.3 µM
  TGI: 28.3 µM
LOX IMVI melanoma
  GI50: 3.69 µM
  TGI: 18.1 µM
SW-620 colon
  GI50: 12.5 µM
  TGI: 33.7 µM
SN12C renal
  GI50: 18.3 µM
  TGI: 42.5 µM
CCRF-CEM leukemia
  GI50: 11.2 µM
  TGI: > 100 µM
HCT-116 colon
  GI50: 6.04 µM
  TGI: 28.9 µM
NCI-H522 lung
  GI50: 4.19 µM
  TGI: 18 µM
ACHN renal
  GI50: 12.9 µM
  TGI: 27.4 µM
T-47D breast
  GI50: 9.55 µM
  TGI: 38.1 µM
BT-549 breast
  GI50: 13.8 µM
  TGI: 29.9 µM
HL-60(TB) leukemia
  GI50: 26.6 µM
  TGI: 82.7 µM
MOLT-4 leukemia
  GI50: 17.7 µM
  TGI: > 100 µM
IGROV1 ovarian
  GI50: 15.6 µM
  TGI: 35.2 µM
OVCAR-3 ovarian
  GI50: 11.7 µM
  TGI: 30 µM
OVCAR-5 ovarian
  GI50: 14.7 µM
  TGI: 52.6 µM
SK-MEL-28 melanoma
  GI50: 11 µM
  TGI: 36.4 µM
SF-539 CNS
  GI50: 14.1 µM
  TGI: 34.6 µM
SK-OV-3 ovarian
  GI50: 14.6 µM
  TGI: 29.5 µM
HT29 colon
  GI50: 15.4 µM
  TGI: 38 µM
SNB-75 CNS
  GI50: 14.6 µM
  TGI: 38.7 µM
HS 578T breast
  GI50: 23.3 µM
  TGI: 96.8 µM
K-562 leukemia
  GI50: 13 µM
  TGI: > 100 µM
NCI-H226 lung
  GI50: 20 µM
  TGI: 65.7 µM
SK-MEL-2 melanoma
  GI50: 12.2 µM
  TGI: 27 µM
SF-268 CNS
  GI50: 16.3 µM
  TGI: 32.7 µM
HOP-62 NSCLC
  GI50: 15.4 µM
  TGI: 34.8 µM
OVCAR-8 ovarian
  GI50: 3.75 µM
  TGI: 17.2 µM
RPMI-8226 leukemia
  GI50: 8.68 µM
  TGI: > 100 µM
MCF7 breast
  GI50: 12.1 µM
  TGI: > 100 µM
SK-MEL-5 melanoma
  GI50: 13.1 µM
  TGI: 26.1 µM
HCT-15 colon
  GI50: 18.5 µM
  TGI: 46.8 µM
CAKI-1 renal
  GI50: 12.7 µM
  TGI: 40.1 µM
MALME-3M melanoma
  GI50: 7.9 µM
  TGI: 23.8 µM
SR leukemia
  GI50: 6.22 µM
  TGI: > 100 µM
UO-31 renal
  GI50: 12.9 µM
  TGI: 26.4 µM
MDA-MB-231 breast
  GI50: 22.3 µM
  TGI: 63.4 µM
OVCAR-4 ovarian
  GI50: 16.1 µM
  TGI: 97.7 µM
EKVX NSCLC
  GI50: 15.9 µM
  TGI: 36.7 µM
NCI/ADR-RES ovarian
  GI50: 10.3 µM
  TGI: 37.4 µM

## CCN(CC)CCNc1ccc2ncn3c4cc(OC)c(OC)c(=O)c4c(O)c1c23
TK-10 renal
  TGI: 31.6 µM
SF-295 CNS
  TGI: 23.6 µM
KM12 colon
  TGI: 23.2 µM
NCI-H460 lung
  TGI: 15.6 µM
UACC-62 melanoma
  TGI: 36.6 µM
DU-145 prostate
  TGI: 23.5 µM
SNB-19 CNS
  TGI: 22.6 µM
RXF 393 renal
  TGI: 6.26 µM
M14 melanoma
  TGI: 30.3 µM
A549 NSCLC
  TGI: 35.1 µM
HOP-92 NSCLC
  TGI: 24.7 µM
COLO 205 colon
  TGI: 17.4 µM
MDA-MB-435
  TGI: 26.9 µM
PC-3 prostate
  TGI: 21 µM
786-0 renal
  TGI: 26.4 µM
HCC-2998 colon
  TGI: 23.2 µM
U251 CNS
  TGI: 28 µM
UACC-257 melanoma
  TGI: 44.2 µM
A498 renal
  TGI: 29.5 µM
LOX IMVI melanoma
  TGI: 2.74 µM
SW-620 colon
  TGI: 16.5 µM
SN12C renal
  TGI: 21.5 µM
CCRF-CEM leukemia
  TGI: 53.1 µM
HCT-116 colon
  TGI: 5.82 µM
NCI-H522 lung
  TGI: 25.9 µM
ACHN renal
  TGI: 20.5 µM
T-47D breast
  TGI: 42.4 µM
BT-549 breast
  TGI: 30.5 µM
HL-60(TB) leukemia
  TGI: 26.3 µM
MOLT-4 leukemia
  TGI: 11.5 µM
IGROV1 ovarian
  TGI: 35.6 µM
OVCAR-3 ovarian
  TGI: 31.7 µM
OVCAR-5 ovarian
  TGI: 45.4 µM
SK-MEL-28 melanoma
  TGI: 27.5 µM
SF-539 CNS
  TGI: 29 µM
SK-OV-3 ovarian
  TGI: 28.8 µM
NCI-H23 lung
  TGI: 26.3 µM
HT29 colon
  TGI: 19.8 µM
SNB-75 CNS
  TGI: 16.5 µM
HS 578T breast
  TGI: 29.1 µM
K-562 leukemia
  TGI: 50.7 µM
NCI-H226 lung
  TGI: 45.6 µM
SK-MEL-2 melanoma
  TGI: 42.7 µM
SF-268 CNS
  TGI: 17.6 µM
HOP-62 NSCLC
  TGI: 28.2 µM
OVCAR-8 ovarian
  TGI: 27.9 µM
RPMI-8226 leukemia
  TGI: 20.2 µM
MCF7 breast
  TGI: 15.2 µM
SK-MEL-5 melanoma
  TGI: 29.8 µM
HCT-15 colon
  TGI: 24.7 µM
CAKI-1 renal
  TGI: 28.9 µM
MALME-3M melanoma
  TGI: 36.8 µM
SR leukemia
  TGI: 16.2 µM
UO-31 renal
  TGI: 25.7 µM
MDA-MB-231 breast
  TGI: 20.7 µM
OVCAR-4 ovarian
  TGI: 24.4 µM
EKVX NSCLC
  TGI: 33.2 µM
NCI/ADR-RES ovarian
  TGI: 41.8 µM
